Laboratory results as given in patent publication US6916604B2, “Uses of synthetic peptides corresponding to telopeptide sequences of cross-linked type I collagen metabolites” (Washington Research Foundation, priority 1987, dated 2005).
No end group written: not given here.

Tested on: MAb-1H11
Test: ELISA of peptides competing against plated-out P1, or plated out as BSA conjugates, for MAb-1H11 binding
Set-up: species or system mouse
Settings: for recognition of free cross-linking amino acids by MAb-1H11: made by acid hydrolysis from bone collagen or as present naturally in urine; for recognition by MAb-1H11: ELISA, free peptides competing against plated-out P1, or conjugated to BSA and plated out; for competitive binding with MAb-1H11 (FIG. 9): absorbance at 450 nm of detectable marker bound to plated-out P1 vs concentration of free peptide

Row | recognition of free cross-linking amino acids by MAb-1H11 | recognition by MAb-1H11 | Molecule | competitive binding with MAb-1H11 (FIG. 9)
1 | not recognized |  | NC(CCCC[n+]1cc(O)c(CC(N)C(=O)O)c(CCC(N)C(=O)O)c1)C(=O)O (stereo not drawn) [LP, lysyl pyridinoline, reference compound] | 
2 |  | not recognized | QYDGKGVGC [SEQ ID NO:1] | little if any significant competitive binding
3 |  | not recognized | YDEKSTGGC [SEQ ID NO:2] | little if any significant competitive binding
4 | not recognized |  | NC(CCc1c[n+](CC(O)CCC(N)C(=O)O)cc(O)c1CC(N)C(=O)O)C(=O)O (stereo not drawn) [HP, hydroxylysyl pyridinoline, reference compound] | 
